Measurements published in patent US20210371817A1, “COMPOSITIONS AND METHODS FOR PRECISE PATTERNING OF POSTERIOR NEUROECTODERM FROM HUMAN PLURIPOTENT STEM CELLS” (WISCONSIN ALUMNI RESEARCH FOUNDATION, priority 2013, published 2021).

Test system: NSC cultures
Assay: Hox protein expression in NSC cultures after RA treatment (immunocytochemistry, flow cytometry)
Assay type: cell-based, human
Procedure: Assessment of neuroectoderm or mesoderm fate transition by flow cytometry. Grey histogram, IgG control; red histogram, antigen of interest. Data are presented as mean±standard deviation calculated from two biological replicates. (FIG. 8B) For experiments in panels FIGS. 8C-8F, neuromesodermal propagation was halted by removing FGF8b/CHIR 99021/GDF11 and adding RA. Assays were conducted after 4 days of RA treatment. (FIG. 8C) HOX profiles generated after RA treatment. Each gene is normalized to its maximum expression. Error bars are standard deviation calculated from duplicate reactions. (FIG. 8D) HoxB4 and HoxD10 expression in neuroepithelial cultures after RA treatment. Scale bars, 100 m. (FIG. 8E) Purity of Sox2, Pax6, HoxB4, and HoxD10 after 4 days of RA treatment. Sox2, Pax6, and HoxB4 were quantified using flow cytometry and HoxD10 was quantified by manual counting of dissociated cells ([…]). Error bars are standard deviation calculated from at least two biological replicates. […] (FIG. 8F) Motor neuron differentiation at cervical, thoracic, and lumbar spinal cord depths, where the motor neuron precursors show region-specific patterns of FoxP1, Isl1, and Hb9 co-expression. (FIG. 8G) Neuronal maturation from cervical, thoracic, and lumbar patterned NSCs, as assessed by immunocytochemistry (top panel; DAPI (blue) is overlaid in all images; Scale bars, 20 m) and RT-PCR (50 cycles; bottom panel).
FIGS. 9A-9C (FIG. 9A) provides additional data showing that RA induces a neuroectodermal fate and halts colinear HOX activation, using the neural differentiation scheme shown in FIG. 8B and representative hindbrain cultures assessed by qPCR. (FIG. 9B) Representative hindbrain cultures assessed by immunocytochemistry. (FIG. 9C) Representative hindbrain cultures assessed by flow cytometry. All data are presented as mean±S.D. and qPCR data are normalized to the time point of maximum expression for each gene. For the hindbrain cultures, HoxB1 and HoxB4 were quantified by immunocytochemistry relative to DAPI+ nuclei, while Sox2 and Pax6 were quantified by flow cytometry. Scale bars, 100 m.
Flow cytometry. Flow cytometry was conducted as described in the Examples above. Primary antibodies against Sox2 (mouse; 1:1000; Millipore), brachyury (goat; 1:200; R&D Systems), Pax6 (mouse; 1:200; DSHB), and HoxB4 (rat; 1:50; DSHB) were utilized. Samples were run on a FACSCaliber (BD Biosciences) and data were analyzed using Cyflogic software. Positive events were quantified by gating above the top 1% of species-matched IgG controls.
Immunocytochemistry. Immunocytochemistry was conducted as previously described. […]

GDF11: Growth differentiation factor 11, a TGFβ family member
HoxD10+ cells (RA added at 120 h of neuromesodermal propagation): 0% | HoxD10+ cells (RA added at 144 h of neuromesodermal propagation, after GDF11 treatment): 89±2%
